Measured values reported in PubChem BioAssay (NCI).
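Values below derive from 48-hour exposures of cells grown in 96-well plates, with endpoints linearly interpolated between the two concentrations bracketing the appropriate inhibition level. Definition used: TGI = concentration required for complete inhibition of growth.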

Experiments:
Test in all cases: inhibition of tumour cell growth, NCI panel, 48 h
[1] = test system: 786-0 renal
[2] = test system: A549 NSCLC
[3] = test system: ACHN renal
[4] = test system: BT-549 breast
[5] = test system: CAKI-1 renal
[6] = test system: CCRF-CEM leukemia
[7] = test system: COLO 205 colon
[8] = test system: DU-145 prostate
[9] = test system: EKVX NSCLC
[10] = test system: HCC-2998 colon
[11] = test system: HCT-116 colon
[12] = test system: HCT-15 colon
[13] = test system: HL-60(TB) leukemia
[14] = test system: HOP-62 NSCLC
[15] = test system: HOP-92 NSCLC
[16] = test system: HS 578T breast
[17] = test system: HT29 colon
[18] = test system: IGROV1 ovarian
[19] = test system: K-562 leukemia
[20] = test system: KM12 colon
[21] = test system: LOX IMVI melanoma
[22] = test system: M14 melanoma
[23] = test system: MALME-3M melanoma
[24] = test system: MCF7 breast
[25] = test system: MDA-MB-231 breast
[26] = test system: MDA-MB-435
[27] = test system: MDA-N
[28] = test system: MOLT-4 leukemia
[29] = test system: NCI-H23 lung
[30] = test system: NCI-H460 lung
[31] = test system: NCI-H522 lung
[32] = test system: NCI/ADR-RES ovarian
[33] = test system: OVCAR-3 ovarian
[34] = test system: OVCAR-4 ovarian
[35] = test system: OVCAR-5 ovarian
[36] = test system: OVCAR-8 ovarian
[37] = test system: PC-3 prostate
[38] = test system: RPMI-8226 leukemia
[39] = test system: RXF 393 renal
[40] = test system: SF-268 CNS
[41] = test system: SF-295 CNS
[42] = test system: SF-539 CNS
[43] = test system: SK-MEL-2 melanoma
[44] = test system: SK-MEL-28 melanoma
[45] = test system: SK-MEL-5 melanoma
[46] = test system: SK-OV-3 ovarian
[47] = test system: SN12C renal
[48] = test system: SNB-19 CNS
[49] = test system: SNB-75 CNS
[50] = test system: SR leukemia
[51] = test system: SW-620 colon
[52] = test system: T-47D breast
[53] = test system: TK-10 renal
[54] = test system: U251 CNS
[55] = test system: UACC-257 melanoma
[56] = test system: UACC-62 melanoma
[57] = test system: UO-31 renal
[58] = test system: A498 renal
[59] = test system: NCI-H226 lung

`O=c1oc2ccc(Cl)cc2cc1C1=CSC2=NCCN12` showed a TGI [1] of 33.4 µM, a TGI [2] of over 100 µM and a TGI [3] of over 100 µM. The TGI [4] was 37.9 µM, the TGI [5] was over 100 µM and the TGI [6] was 47 µM. For the same compound, the TGI [7] was 41.5 µM, the TGI [8] was 36.2 µM and the TGI [9] was 51.6 µM. For the same compound, the TGI [10] was 29.4 µM, the TGI [11] was 32 µM and the TGI [12] was 41.6 µM. It also gave a TGI [13] of 61 µM, a TGI [14] of 34.3 µM and a TGI [15] of 48.3 µM. It also gave a TGI [16] of 93 µM, a TGI [17] of 36.3 µM and a TGI [18] of 34 µM. The TGI [19] was 36.8 µM, the TGI [20] was 41.3 µM and the TGI [21] was 35.1 µM. It also gave a TGI [22] of over 100 µM, a TGI [23] of 79.7 µM and a TGI [24] of 40.1 µM. For the same compound, the TGI [25] was 40.9 µM, the TGI [26] was 57.8 µM and the TGI [27] was 47.4 µM. The TGI [28] was 36.4 µM, the TGI [29] was 47.4 µM and the TGI [30] was over 100 µM. The TGI [31] was 34.5 µM, the TGI [32] was over 100 µM and the TGI [33] was 35.5 µM. For the same compound, the TGI [34] was 65.4 µM, the TGI [35] was over 100 µM and the TGI [36] was 38.7 µM. It also gave a TGI [37] of 49.2 µM, a TGI [38] of 44.1 µM and a TGI [39] of 49.5 µM. It also gave a TGI [40] of 33.4 µM, a TGI [41] of 59.1 µM and a TGI [42] of 72 µM. For the same compound, the TGI [43] was 55.8 µM, the TGI [44] was 80.1 µM and the TGI [45] was 34.2 µM. The TGI [46] was over 100 µM, the TGI [47] was 32.7 µM and the TGI [48] was 67.7 µM. The TGI [49] was over 100 µM, the TGI [50] was 34.6 µM and the TGI [51] was 49.1 µM. It also gave a TGI [52] of 79.7 µM, a TGI [53] of 84.4 µM and a TGI [54] of 56.2 µM. It also gave a TGI [55] of over 100 µM, a TGI [56] of 40.4 µM and a TGI [57] of 51.4 µM.
In the case of `O=C(O)CC1OCC=C2C[N+]3([O-])CCC45c6ccccc6NC4C1C2CC53` (centres undefined), the TGI [1] is reported as over 100 µM, the TGI [58] is reported as over 100 µM and the TGI [2] is reported as over 100 µM. For the same compound, the TGI [3] was over 100 µM, the TGI [4] was over 100 µM and the TGI [5] was over 100 µM. The TGI [7] was over 100 µM, the TGI [8] was over 100 µM and the TGI [9] was over 100 µM. For the same compound, the TGI [11] was over 100 µM, the TGI [12] was over 100 µM and the TGI [13] was over 100 µM. For the same compound, the TGI [14] was over 100 µM, the TGI [15] was over 100 µM and the TGI [16] was over 100 µM. For the same compound, the TGI [17] was over 100 µM, the TGI [18] was over 100 µM and the TGI [19] was over 100 µM. The TGI [20] was over 100 µM, the TGI [21] was over 100 µM and the TGI [22] was over 100 µM. The TGI [23] was over 100 µM, the TGI [24] was over 100 µM and the TGI [25] was over 100 µM. For the same compound, the TGI [26] was over 100 µM, the TGI [27] was over 100 µM and the TGI [28] was over 100 µM. For the same compound, the TGI [59] was over 100 µM, the TGI [29] was over 100 µM and the TGI [30] was over 100 µM. For the same compound, the TGI [31] was over 100 µM, the TGI [32] was over 100 µM and the TGI [33] was over 100 µM. For the same compound, the TGI [34] was over 100 µM, the TGI [35] was over 100 µM and the TGI [36] was over 100 µM. It also gave a TGI [37] of over 100 µM, a TGI [38] of over 100 µM and a TGI [39] of over 100 µM. It also gave a TGI [40] of over 100 µM, a TGI [41] of over 100 µM and a TGI [42] of over 100 µM. The TGI [43] was 34.2 µM, the TGI [44] was over 100 µM and the TGI [45] was over 100 µM. The TGI [46] was over 100 µM, the TGI [47] was over 100 µM and the TGI [48] was over 100 µM. For the same compound, the TGI [50] was over 100 µM, the TGI [51] was over 100 µM and the TGI [52] was over 100 µM. It also gave a TGI [53] of over 100 µM, a TGI [54] of over 100 µM and a TGI [55] of over 100 µM. For the same compound, the TGI [56] was over 100 µM and the TGI [57] was over 100 µM.
Work on `COCOc1cc(OC)ccc1C/C=N/O` yielded a TGI [1] of over 100 µM, a TGI [2] of over 100 µM and a TGI [3] of over 100 µM. It also gave a TGI [4] of over 100 µM, a TGI [5] of over 100 µM and a TGI [6] of over 100 µM. For the same compound, the TGI [7] was over 100 µM, the TGI [8] was over 100 µM and the TGI [9] was over 100 µM. The TGI [10] was over 100 µM, the TGI [11] was over 100 µM and the TGI [12] was over 100 µM. It also gave a TGI [13] of over 100 µM, a TGI [14] of over 100 µM and a TGI [15] of over 100 µM. It also gave a TGI [16] of over 100 µM, a TGI [17] of over 100 µM and a TGI [18] of over 100 µM. It also gave a TGI [19] of over 100 µM, a TGI [20] of over 100 µM and a TGI [21] of over 100 µM. For the same compound, the TGI [22] was over 100 µM, the TGI [23] was over 100 µM and the TGI [24] was over 100 µM. For the same compound, the TGI [25] was over 100 µM, the TGI [26] was over 100 µM and the TGI [27] was over 100 µM. It also gave a TGI [28] of over 100 µM, a TGI [59] of over 100 µM and a TGI [29] of over 100 µM. For the same compound, the TGI [30] was over 100 µM, the TGI [31] was over 100 µM and the TGI [32] was over 100 µM. For the same compound, the TGI [33] was over 100 µM, the TGI [34] was over 100 µM and the TGI [35] was over 100 µM. The TGI [36] was over 100 µM, the TGI [37] was over 100 µM and the TGI [39] was over 100 µM. It also gave a TGI [40] of over 100 µM, a TGI [41] of over 100 µM and a TGI [42] of over 100 µM. The TGI [43] was over 100 µM, the TGI [44] was over 100 µM and the TGI [45] was over 100 µM. For the same compound, the TGI [46] was over 100 µM, the TGI [47] was over 100 µM and the TGI [48] was over 100 µM. It also gave a TGI [50] of over 100 µM, a TGI [51] of over 100 µM and a TGI [52] of over 100 µM. The TGI [53] was over 100 µM, the TGI [54] was over 100 µM and the TGI [55] was over 100 µM. For the same compound, the TGI [56] was over 100 µM and the TGI [57] was over 100 µM.
